{"source": "patent US20260256771A1", "about": "“GALUNISERTIB FOR USE IN THE TREATMENT OF ANDROGENIC ALOPECIA” (SAÚDE VIÁVEL, S.A., priority 2022, published 2026)", "key": {"TGFβ2": {"test_system": "TGFβ2", "assay": "qRT-PCR of TGFβ transcripts in dermal papilla isolated from HFOCs", "assay_type": "cell-based, human", "conditions": "Galunisertib-treated HFOCs (10 μM, 48 h)", "description": "Concentration and purity are ascertained in a NanoDrop spectrophotometer.\n(§1) In addition, only anagen hair follicles are used.\n(§2) Hair growth percentages is normalized to day 0."}, "[1]": {"test_system": "human hair follicle organ cultures (HFOCs)", "assay": "Ex vivo human scalp hair follicle organ culture: catagen onset and hair shaft elongation", "assay_type": "cell-based", "conditions": "10 μM; in comparison to untreated controls; 10 days culture", "description": "FIG. 2. Galunisertib delays catagen entry in HFOCs. a) Hair growth ex vivo (HFOCs) under different treatment conditions for 10 days. Representative HF photos for each condition over time are shown in the panels. DP detachment was used as readout for catagen onset. Scale bar, 1 mm. b) Catagen onset timing in HFOCs under different treatment conditions as indicated. c) Percentage of hair shaft elongation in comparison to day 0. In b) and c), values are mean±SD of HFOCs established from n=5 independent donors (n>20 HFs per condition). ns not significant, *p≤0.05, **p≤0.01 by Mann-Whitney (b,c).\nas §1, §2"}, "[2]": {"test_system": "C57BL/6 depilated male mice", "assay": "Hair growth in depilated mice under topical treatment (photographs, trichoscopy)", "assay_type": "in vivo, mouse", "conditions": "for hair growth in magnified photographs of depilated areas: day 9, vs vehicle control", "experimental": "FIG. 7. Galunisertib induces hair growth in C57BL/6J mice. a) Mouse treatment scheme. 7-week-old C57BL/6J mice were depilated (day −2) and 2 days later (day 0) started being treated with vehicle (70% ethanol), galunisertib (10 μM and 100 μM) or 3% minoxidil for 21 non-continuous days. b) Photographs of C57BL/6J mice treated with vehicle (control), 10 μM and 100 μM galunisertib or 3% minoxidil at days 0, 5, 9 and 14. c) Magnified photographs of the depilation site of C57BL/6J mice treated with vehicle (Ctr), galunisertib (10 and 100 μM) or minoxidil at days 7 and 9. d) Trichoscopy images of depilated regions at days 8 and 10. N≥3 animals were used per timepoint per condition for image and skin collection; e) Mass spectrometry analysis of skin biopsies retrieved at day 14 from animals treated with 10 μM and 100 μM galunisertib. Values are mean±SD of n=3 animals per condition.\nMice are six-week-old male C57BL/6J mice purchased from the Charles River Laboratories. The animals are housed and allowed to adapt to the laboratory environment for one week before experiments start. Animals are maintained under a 12 h light/dark cycle and fed with regular rodent's chow and tap water ad libitum, at the i3S animal facility.\nFor depilation and treatments in order to synchronize hair growth cycle in mice, anagen is induced by depilation. Seven-week-old male C57BL/6J mice are anesthetized using 3% isoflurane and their back is shaved using a hair shaver. Hair is then further depilated using cold wax bands (Veet Minima). After the depilation, the excess of wax is removed with mineral oil, and a skin protector spray, Douxo Calm Sérum, is applied, followed by Cavilon, a barrier film spray. To allow for skin to fully recover, topical treatments started two days later. During the procedures mice are under volatile anesthesia (3% isoflurane) and are kept warmed. Mice are photographed with a camara or a trichoscope (Dino-Lite), before topical application of galunisertib (10 μM and 100 μM), minoxidil (3%) or vehicle (70% ethanol). Topical applications are performed using a syringe in order to cover the depilated area only. Hair growth is followed for 21 days, although telogen is apparent at day 18 post-treatment."}, "[3]": {"test_system": "C57BL/6 depilated male mice", "assay": "Histology (hematoxylin-eosin) of dorsal skin: number of hair follicles", "assay_type": "in vivo, mouse", "experimental": "FIG. 8. Galunisertib increases anagenic hair follicle growth. a) Hematoxilin-eosin staining of transversal paraffin sections of the dorsal skin of mice treated with vehicle (control), galunisertib (10 μM and 100 μM) or minoxidil at days 0, 5, 7, 14, 16 and 18 of treatment. Scale bar, 500 μm. b) Number of hair follicles per field view and c) number of hair follicles per field view in the subcutaneous layer at different timepoints along the experiment. d) Ki67 immunostaining of longitudinal paraffin sections of the dorsal skin of mice treated with vehicle (control), galunisertib (10 μM and 100 μM) or minoxidil at days 5, 7 and 14. Scale bar, 200 μm. e) Number of Ki67-positive cells in the hair bulb at days 5, 7 and 14. N≥3 animals per timepoint per condition were analyzed, and N≥4 field views were quantified per animal. Values are mean±SD. *p<0.05; **p<0.01 by Student's t-test.\nFor histology and immunohistochemistry, dorsal skin from the depilated region is collected from mice at different timepoints across the experiment (days 0, 5, 7, 14 and 18) and fixed in 10% buffered formalin, imbedded in paraffin and sectioned along the transversal and longitudinal plan of the hair follicles (3 μm sections). Standard protocol is used for hematoxylin and eosin staining. For immunohistochemistry, slides are deparaffinized, then antigen retrieval is performed using HistoVT One (#06380-05, Nacalai Tesque Inc.) for 40 min in a steamer, following 20 min of cooling at room temperature (RT). After washing with TBS-0.01% Tween (TBS-T), peroxidase is blocked using Bloxall (#SP-6000, Vector Laboratories Inc.) for 10 min. Slides are then washed with TBS-T, and blocked using 2.5% Normal Horse Serum (#MP7500, Impress universal kit, Vector Laboratories Inc.) for 20 min. Following this, slides are incubated with rabbit anti-Ki67 antibody (D3B5) in 0.25% Normal Horse Serum overnight at 4° C. Next day, after thoroughly washing with TBS-T, the slides are incubated with a secondary anti-mouse/anti-rabbit antibody (#MP7500, Impress universal kit, Vector Laboratories Inc.) for 45 min RT. Impact DAB (#SK-4105, Vector Laboratories Inc.) are used to develop the slides, followed by dehydration and mounting with Entellan (#1.07961.0100, Millipore) following standard procedures."}}, "data": [{"smiles": "Cc1cccc(-c2nn3c(c2-c2ccnc4ccc(C(N)=O)cc24)CCC3)n1", "note": "[Galunisertib]", "values": [{"measurement": "TGFβ2 gene expression in the DP", "setting": "TGFβ2", "result": "inhibit TGFβ2 gene expression"}, {"measurement": "catagen entry (mean time HFOCs take to enter catagen)", "setting": "[1]", "result": "capable of delaying catagen entry"}, {"measurement": "hair shaft elongation", "setting": "[1]", "result": "impact in the hair shaft elongation"}, {"measurement": "adverse side effects", "setting": "[2]; mice under topical galunisertib (10 and 100 μM)", "result": "no apparent adverse side effects"}, {"measurement": "hair growth in magnified photographs of depilated areas", "setting": "[2]; topical 10 μM galunisertib", "result": "marked improvement of hair growth"}, {"measurement": "hair growth in magnified photographs of depilated areas", "setting": "[2]; topical 100 μM galunisertib, ranked after 10 μM galunisertib", "result": "marked improvement of hair growth"}, {"measurement": "hair density by trichoscopy examination of depilated regions", "setting": "[2]; topical galunisertib, in particular 10 μM, days 8 and 10", "result": "increased hair density"}, {"measurement": "macroscopic assessment of hair growth: darkness of depilated area (hair density)", "setting": "[2]; topical, galunisertib 10 and 100 μM, minoxidil 3%, vs. control mice, day 5 to day 14", "result": "consistently darker"}, {"measurement": "number of HFs within the subcutaneous layer (anagenic HFs)", "setting": "[3]; day 5, vs vehicle", "result": "increased number of HFs"}, {"measurement": "number of anagenic HFs", "setting": "[3]; day 5 to day 14", "result": "increased number of anagenic HFs"}, {"measurement": "catagen onset in mice", "setting": "[3]; similar timing in all conditions", "result": "not to be delayed"}, {"measurement": "anagenic hair growth (overall)", "setting": "[3]; similarly to minoxidil, but more efficiently", "result": "improves anagenic hair growth"}, {"measurement": "number of HF (per field view)", "setting": "[3]; transversal HF sections, day 7 to day 14, vs control vehicle treatment", "result": "significant increase in the number of HF"}, {"measurement": "persistence of the increased number of anagenic HFs", "setting": "[3]; until day 14", "result": "perdures until day 14"}]}]}
